pIC50: −log10 of the molar value.
What was measured:
PIK3CA (human) = PIK3CA (human) (UniProt P42336); experiment: Assessment of PIK3CA Kinase Activity
PIK3CG (human) = PIK3CG (human) (UniProt P48736); experiment: Assessment of PIK3CG Kinase Activity
Sequence of PIK3CG (human) (P48736 whole entry, looked up): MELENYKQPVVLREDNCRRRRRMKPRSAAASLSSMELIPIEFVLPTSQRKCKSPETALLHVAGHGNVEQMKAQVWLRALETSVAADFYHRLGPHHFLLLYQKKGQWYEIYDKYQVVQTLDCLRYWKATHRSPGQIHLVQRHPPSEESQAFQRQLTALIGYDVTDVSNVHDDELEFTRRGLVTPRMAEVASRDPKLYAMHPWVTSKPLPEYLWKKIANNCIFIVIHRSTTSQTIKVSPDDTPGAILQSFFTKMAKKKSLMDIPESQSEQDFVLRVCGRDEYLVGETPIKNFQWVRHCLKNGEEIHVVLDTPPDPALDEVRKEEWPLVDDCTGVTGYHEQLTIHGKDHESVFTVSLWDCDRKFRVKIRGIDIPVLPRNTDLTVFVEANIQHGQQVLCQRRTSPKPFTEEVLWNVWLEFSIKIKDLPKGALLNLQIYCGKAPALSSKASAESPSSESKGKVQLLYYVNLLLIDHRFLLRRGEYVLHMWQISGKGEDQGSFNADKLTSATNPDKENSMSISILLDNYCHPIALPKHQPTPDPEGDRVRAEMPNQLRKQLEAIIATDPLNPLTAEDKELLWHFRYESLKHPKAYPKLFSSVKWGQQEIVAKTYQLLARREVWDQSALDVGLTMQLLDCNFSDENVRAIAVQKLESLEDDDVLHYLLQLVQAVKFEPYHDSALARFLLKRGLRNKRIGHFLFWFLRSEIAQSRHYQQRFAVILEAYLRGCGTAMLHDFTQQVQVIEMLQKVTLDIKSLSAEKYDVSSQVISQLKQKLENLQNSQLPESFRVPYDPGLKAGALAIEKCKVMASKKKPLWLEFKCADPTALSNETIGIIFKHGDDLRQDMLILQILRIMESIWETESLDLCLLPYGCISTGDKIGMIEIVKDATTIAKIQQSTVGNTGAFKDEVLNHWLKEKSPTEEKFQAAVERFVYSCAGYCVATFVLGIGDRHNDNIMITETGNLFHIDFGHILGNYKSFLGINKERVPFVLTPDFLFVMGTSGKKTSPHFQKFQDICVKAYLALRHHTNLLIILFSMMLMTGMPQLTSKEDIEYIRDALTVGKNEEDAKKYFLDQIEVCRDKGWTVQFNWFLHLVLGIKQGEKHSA

Sequence of PIK3CA (human) (P42336 whole entry, looked up): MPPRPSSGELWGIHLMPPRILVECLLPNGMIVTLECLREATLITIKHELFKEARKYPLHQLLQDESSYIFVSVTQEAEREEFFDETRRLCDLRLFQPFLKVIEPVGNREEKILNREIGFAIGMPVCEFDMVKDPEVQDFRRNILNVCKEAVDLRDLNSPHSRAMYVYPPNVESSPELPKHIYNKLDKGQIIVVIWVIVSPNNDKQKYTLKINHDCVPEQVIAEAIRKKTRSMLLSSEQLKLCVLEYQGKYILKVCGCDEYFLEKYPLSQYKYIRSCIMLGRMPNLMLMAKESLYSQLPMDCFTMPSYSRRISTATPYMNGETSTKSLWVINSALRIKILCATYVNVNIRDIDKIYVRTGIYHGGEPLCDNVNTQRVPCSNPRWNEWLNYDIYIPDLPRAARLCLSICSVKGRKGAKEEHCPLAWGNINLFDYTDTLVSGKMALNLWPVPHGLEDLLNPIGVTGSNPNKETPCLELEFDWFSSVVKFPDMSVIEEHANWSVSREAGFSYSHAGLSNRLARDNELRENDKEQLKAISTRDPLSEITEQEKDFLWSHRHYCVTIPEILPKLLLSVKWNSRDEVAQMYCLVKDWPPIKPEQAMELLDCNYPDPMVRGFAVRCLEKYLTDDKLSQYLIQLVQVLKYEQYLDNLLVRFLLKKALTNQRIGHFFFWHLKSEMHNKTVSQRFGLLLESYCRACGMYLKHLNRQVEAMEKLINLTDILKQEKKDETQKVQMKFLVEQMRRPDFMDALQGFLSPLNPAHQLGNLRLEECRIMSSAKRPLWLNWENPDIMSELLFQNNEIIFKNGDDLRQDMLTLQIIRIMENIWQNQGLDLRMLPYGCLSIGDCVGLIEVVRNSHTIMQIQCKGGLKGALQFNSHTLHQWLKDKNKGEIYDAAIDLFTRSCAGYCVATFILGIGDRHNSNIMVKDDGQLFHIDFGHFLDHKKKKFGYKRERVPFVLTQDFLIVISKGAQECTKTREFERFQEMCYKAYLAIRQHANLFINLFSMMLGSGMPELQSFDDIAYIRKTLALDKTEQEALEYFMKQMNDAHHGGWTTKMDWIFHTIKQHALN

`CNC(=O)Nc1ccc(-c2nc3c(c(N4CC5CCC(C4)O5)n2)CCN(C)C3)cc1` gave a pIC50 (PIK3CA (human)) of 5.48 and a pIC50 (PIK3CG (human)) of under 5.00.
With `CS(=O)(=O)N1CCc2c(nc(-c3ccc(NC(=O)Nc4cccnc4)cc3)nc2N2C3CCC2COC3)C1` the pIC50 (PIK3CA (human)) was 6.93 and the pIC50 (PIK3CG (human)) was 5.40.
`CN(C)C1CCN(C(=O)c2ccc(NC(=O)Nc3ccc(-c4nc5c(c(N6C7CCC6COC7)n4)CNC5)cc3)cc2)CC1` gave a pIC50 (PIK3CA (human)) of 6.52 and a pIC50 (PIK3CG (human)) of under 5.00.
Molecule `CS(=O)(=O)N1CCc2c(nc(-c3ccc(NC(=O)Nc4cccnc4)cc3)nc2N2CCOCC2)C1` has a pIC50 (PIK3CA (human)) of 8.46 and a pIC50 (PIK3CG (human)) of 7.36.
`CN(C)C1CCN(C(=O)c2ccc(NC(=O)Nc3ccc(-c4nc5c(c(N6CC7CCC(C6)O7)n4)CCNC5)cc3)cc2)CC1` was tested, and the pIC50 (PIK3CA (human)) was 5.95 and the pIC50 (PIK3CG (human)) was 5.40.
`CS(=O)(=O)N1Cc2nc(-c3ccc(NC(=O)Nc4cccnc4)cc3)nc(N3CCOCC3)c2C1` gave a pIC50 (PIK3CA (human)) of 7.35 and a pIC50 (PIK3CG (human)) of 6.11.
In the case of `CNC(=O)Nc1ccc(-c2nc3c(c(N4CC5CCC(C4)O5)n2)CN(S(C)(=O)=O)C3)cc1`, the pIC50 (PIK3CA (human)) was 8.22 and the pIC50 (PIK3CG (human)) was 6.94.
With `CNC(=O)Nc1ccc(-c2nc3c(c(N4C5CCC4COC5)n2)CCN(C)C3)cc1` the pIC50 (PIK3CA (human)) was 5.36 and the pIC50 (PIK3CG (human)) was under 5.00.
`CN1CCc2c(nc(-c3ccc(NC(=O)Nc4cccnc4)cc3)nc2N2CC3CCC(C2)O3)C1` showed a pIC50 (PIK3CA (human)) of 6.17 and a pIC50 (PIK3CG (human)) of 5.02.
For `CNC(=O)Nc1ccc(-c2nc3c(c(N4C5CCC4COC5)n2)CCN(S(C)(=O)=O)C3)cc1`, the pIC50 (PIK3CA (human)) was 6.24 and the pIC50 (PIK3CG (human)) was under 5.00.
`CN(C)C1CCN(C(=O)c2ccc(NC(=O)Nc3ccc(-c4nc5c(c(N6CCOCC6)n4)CCNC5)cc3)cc2)CC1` gave a pIC50 (PIK3CA (human)) of 7.51 and a pIC50 (PIK3CG (human)) of 6.65.
`CS(=O)(=O)N1Cc2nc(-c3ccc(NC(=O)Nc4cccnc4)cc3)nc(N3C4CCC3COC4)c2C1` gave a pIC50 (PIK3CA (human)) of 6.14 and a pIC50 (PIK3CG (human)) of under 5.00.
`O=C(Nc1ccc(-c2nc3c(c(N4CC5CCC(C4)O5)n2)CCNC3)cc1)Nc1cccnc1` gave a pIC50 (PIK3CA (human)) of 6.11 and a pIC50 (PIK3CG (human)) of 4.85.
With `CNC(=O)Nc1ccc(-c2nc3c(c(N4C5CCC4COC5)n2)CNC3)cc1` the pIC50 (PIK3CA (human)) was 6.54 and the pIC50 (PIK3CG (human)) was 5.14.

Source: the Kinase Knowledgebase extract (Sharma et al. 2016)
